Measurements reported in PubChem BioAssay (NCI).
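Cells were grown in 96-well plates and exposed to each compound for 48 hours at five concentrations; endpoints were interpolated linearly between bracketing concentrations, or set to the highest concentration if not reached. At the TGI there is no net growth.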

Key:
Assay in all cases: NCI anticancer screen, dose series, 48 h
[1] = tested on: MDA-MB-435
[2] = tested on: M14 melanoma
[3] = tested on: UO-31 renal
[4] = tested on: NCI-H460 lung
[5] = tested on: HS 578T breast
[6] = tested on: SF-539 CNS
[7] = tested on: SW-620 colon
[8] = tested on: BT-549 breast
[9] = tested on: A549 NSCLC
[10] = tested on: RPMI-8226 leukemia
[11] = tested on: SK-OV-3 ovarian
[12] = tested on: MCF7 breast
[13] = tested on: SF-295 CNS
[14] = tested on: SR leukemia
[15] = tested on: A498 renal
[16] = tested on: U251 CNS
[17] = tested on: SN12C renal
[18] = tested on: SK-MEL-5 melanoma
[19] = tested on: SK-MEL-2 melanoma
[20] = tested on: NCI-H522 lung
[21] = tested on: MDA-MB-231 breast
[22] = tested on: CAKI-1 renal
[23] = tested on: K-562 leukemia
[24] = tested on: SNB-75 CNS
[25] = tested on: RXF 393 renal
[26] = tested on: NCI-H23 lung
[27] = tested on: MDA-N
[28] = tested on: COLO 205 colon
[29] = tested on: DU-145 prostate
[30] = tested on: HOP-92 NSCLC
[31] = tested on: CCRF-CEM leukemia
[32] = tested on: 786-0 renal
[33] = tested on: SF-268 CNS
[34] = tested on: OVCAR-3 ovarian
[35] = tested on: HCC-2998 colon
[36] = tested on: OVCAR-4 ovarian
[37] = tested on: ACHN renal
[38] = tested on: IGROV1 ovarian
[39] = tested on: OVCAR-8 ovarian
[40] = tested on: HOP-62 NSCLC
[41] = tested on: PC-3 prostate
[42] = tested on: EKVX NSCLC
[43] = tested on: NCI/ADR-RES ovarian
[44] = tested on: TK-10 renal
[45] = tested on: MOLT-4 leukemia
[46] = tested on: HCT-116 colon
[47] = tested on: HL-60(TB) leukemia
[48] = tested on: MALME-3M melanoma
[49] = tested on: KM12 colon
[50] = tested on: T-47D breast
[51] = tested on: SNB-19 CNS
[52] = tested on: HT29 colon
[53] = tested on: NCI-H226 lung
[54] = tested on: LOX IMVI melanoma
[55] = tested on: HCT-15 colon
[56] = tested on: UACC-62 melanoma
[57] = tested on: UACC-257 melanoma
[58] = tested on: SK-MEL-28 melanoma
[59] = tested on: OVCAR-5 ovarian

O=C(CSc1ncccn1)N/N=C/c1ccccc1OCc1ccccc1
TGI [1]: 31.5 µM | TGI [2]: > 100 µM | TGI [3]: > 100 µM | TGI [4]: 94.9 µM | TGI [5]: 95.3 µM | TGI [6]: 46 µM | TGI [7]: > 100 µM | TGI [8]: 70.4 µM | TGI [9]: > 100 µM | TGI [10]: 43.6 µM | TGI [11]: > 100 µM | TGI [12]: 43.9 µM | TGI [13]: 50.9 µM | TGI [14]: 29.5 µM | TGI [15]: 71.8 µM | TGI [16]: 81.7 µM | TGI [17]: 72.6 µM | TGI [18]: 28.4 µM | TGI [19]: 47.6 µM | TGI [20]: 79.2 µM | TGI [21]: 95.3 µM | TGI [22]: > 100 µM | TGI [23]: > 100 µM | TGI [24]: 67.7 µM | TGI [25]: 55.6 µM | TGI [26]: > 100 µM | TGI [27]: 60.9 µM | TGI [28]: 38.8 µM | TGI [29]: 96.7 µM | TGI [30]: 78.3 µM | TGI [31]: 57.9 µM | TGI [32]: > 100 µM | TGI [33]: > 100 µM | TGI [34]: 33.9 µM | TGI [35]: 95.1 µM | TGI [36]: > 100 µM | TGI [37]: > 100 µM | TGI [38]: > 100 µM | TGI [39]: > 100 µM | TGI [40]: 83.1 µM | TGI [41]: > 100 µM | TGI [42]: 83.1 µM | TGI [43]: > 100 µM | TGI [44]: 62.4 µM | TGI [45]: 65.8 µM | TGI [46]: 53.4 µM | TGI [47]: 47.5 µM | TGI [48]: > 100 µM | TGI [49]: > 100 µM | TGI [50]: 70.7 µM | TGI [51]: > 100 µM | TGI [52]: > 100 µM | TGI [53]: 55.1 µM | TGI [54]: 36.4 µM | TGI [55]: 65.1 µM | TGI [56]: 50.4 µM | TGI [57]: 53.5 µM | TGI [58]: > 100 µM | TGI [59]: > 100 µM
